# Measured values: publication PMC7253723, “Chain-End Modifications and Sequence Arrangements of Antimicrobial Peptoids for Mediating Activity and Nano-Assembly” (Frontiers in Chemistry, 2020)
# Where two headings read alike, the source gives them in different places. Square brackets hold non-standard residues; d marks the D form. Peptide text beside a SMILES is read from it. * marks the point of attachment. N(1-naphthylmethyl)Gly = O=C(O)CNCc1cccc2ccccc12; N(4-MeBn)Gly = Cc1ccc(CNCC(=O)O)cc1; Palmitoyl = CCCCCCCCCCCCCCCC(=O)*; Nspe = C[C@H](NCC(=O)O)c1ccccc1; AEEA = NCCOCCOCC(=O)O; NBuGly = CCCCNCC(=O)O; Nlys = NCCCCNCC(=O)O
# Legend:
# [1] = Critical aggregation concentration (CAC) Nile red fluorescence assay; format: physicochemical; settings: Nile red fluorescence (~10 nM NR in water), lipopeptoids 2.5 × 10^-2 to 1 wt.%, excitation 552 nm, peak around 610 nm, room temperature; inflection in emission intensity
# Method: Nile red (NR) fluorescence was used to measure critical aggregation concentration (CAC) for the synthesized lipopeptoids. Lipopeptoids were dissolved at 2.5 × 10^−2 to 1 wt.% in a dilute solution of Nile red (0.25 μg/100 mL, i.e. ~10 nM concentration) prepared in water. NR was excited at 552 nm and emission was recorded at room temperature in the range 550–750 nm using a 10.0 × 5.0 mm^2 quartz cell (Jasco spectrofluorimeter FP-6500). The intensity of the peak centered around 610 nm is shown in the data presented in Section results and discussion.
# We first examined with a CAC assay whether coupling a hydrophobic tail to AMPMs and inserting the kk and EG2 components is a viable design for generating self-assembling lipopeptoids. The CAC measures the concentration above which hydrophobic pockets (e.g., lipophilic cores of micelles) are formed, and lower CACs indicate higher propensities of self-assembly. In our experiments, the CAC is indicated by an inflection in the increase in emission intensity of a lipophilic fluorophore tracer (Nile Red) that emits more strongly when partitioned into hydrophobic lower dielectric environments (see Figure S6 for an example analysis).
# [2] = system: Staphylococcus aureus (NCTC 4135); format: cell-based
# Method: (§1) Technical triplicates (n = 3) or more of samples at each concentration were analyzed.
# [3] = system: Escherichia coli (ATCC 25922); format: cell-based
# Method: as §1
# [4] = system: Pseudomonas aeruginosa (PA01); format: cell-based
# Method: as §1
# [5] = MH broth microdilution (CLSI M07-A10), ~5 × 10^5 CFU/mL, overnight 37°C, OD 600 nm, MIC = concentration with OD halfway between minimum and maximum, sigmoidal fit ± SD, n = 3 or more, maximum tested 100 μM
Structure (SMILES),CAC [1] [µM],Antimicrobial activity (MIC) S. aureus [2] [µM],Antimicrobial activity (MIC) E. coli [3] [µM],Antimicrobial activity (MIC) P. aeruginosa [4] [µM],other results
CCCCCCCCCCCCCCCC(=O)NCCOCCOCC(=O)N(CC(=O)N(CC(=O)N(CC(=O)N(CCCC)CC(=O)N(CCCCN)CC(=O)N(CCCCN)CC(=O)N(CCCCN)CC(=O)N(CCCCN)CC(=O)N(CCCCN)CC(N)=O)Cc1cccc2ccccc12)Cc1ccc(C)cc1)Cc1cccc2ccccc12 [C15-EG2-5k] ({Palmitoyl-AEEA}-[N(1-naphthylmethyl)Gly][N(4-MeBn)Gly][N(1-naphthylmethyl)Gly][NBuGly][Nlys][Nlys][Nlys][Nlys][Nlys]-NH2),360 ± 25,,,,
"CCCCN(CC(=O)N(CCCCN)CC(=O)N(CCCCN)CC(=O)N(CCCCN)CC(=O)N(CCCCN)CC(N)=O)C(=O)CN(Cc1cccc2ccccc12)C(=O)CN(Cc1ccc(C)cc1)C(=O)CNCc1cccc2ccccc12 [4k, reference compound] (H-[N(1-naphthylmethyl)Gly][N(4-MeBn)Gly][N(1-naphthylmethyl)Gly][NBuGly][Nlys][Nlys][Nlys][Nlys]-NH2)",,7 ± 0.1,7 ± 0.3,19 ± 0.4,
CCCCCCCCCCCCCCCC(=O)NCCOCCOCC(=O)N(CC(=O)N(CCCCN)CC(=O)N(CC(=O)N(CCCCN)CC(=O)N(CC(=O)N(CCCCN)CC(=O)N(CCCC)CC(=O)N(CCCCN)CC(N)=O)Cc1cccc2ccccc12)Cc1ccc(C)cc1)Cc1cccc2ccccc12 [C15-EG2-kykbk] ({Palmitoyl-AEEA}-[N(1-naphthylmethyl)Gly][Nlys][N(4-MeBn)Gly][Nlys][N(1-naphthylmethyl)Gly][Nlys][NBuGly][Nlys]-NH2),410 ± 32,,,,
"CCCCN(CC(=O)N(CCCCN)CC(N)=O)C(=O)CN(CCCCN)C(=O)CN(Cc1cccc2ccccc12)C(=O)CN(CCCCN)C(=O)CN(Cc1ccc(C)cc1)C(=O)CN(CCCCN)C(=O)CNCc1cccc2ccccc12 [Kykbk, reference compound] (H-[N(1-naphthylmethyl)Gly][Nlys][N(4-MeBn)Gly][Nlys][N(1-naphthylmethyl)Gly][Nlys][NBuGly][Nlys]-NH2)",,9 ± 0.4,15 ± 1,20 ± 1,
"C[C@@H](c1ccccc1)N(CC(N)=O)C(=O)CN(C(=O)CN(CCCCN)C(=O)CN(C(=O)CN(C(=O)CNCCCCN)[C@@H](C)c1ccccc1)[C@@H](C)c1ccccc1)[C@@H](C)c1ccccc1 [(kss)2, reference compound] (H-[Nlys][Nspe][Nspe][Nlys][Nspe][Nspe]-NH2)",,,,,"Antimicrobial activity (MIC) S. aureus [2, 5]: 41 ± 2 µM; Antimicrobial activity (MIC) E. coli [3, 5]: >100 µM; Antimicrobial activity (MIC) P. aeruginosa ([4]; PA01, MH broth microdilution (CLSI M07-A10), ~5 × 10^5 CFU/mL, overnight 37°C, OD 600 nm, MIC = concentration with OD halfway between minimum and maximum, sigmoidal fit ± SD, n = 3 or more, maximum tested 100 μM): 44 ± 2 µM"
"C[C@@H](c1ccccc1)N(CC(N)=O)C(=O)CN(C(=O)CN(CCCCN)C(=O)CN(C(=O)CN(C(=O)CN(CCCCN)C(=O)CN(C(=O)CN(C(=O)CNCCCCN)[C@@H](C)c1ccccc1)[C@@H](C)c1ccccc1)[C@@H](C)c1ccccc1)[C@@H](C)c1ccccc1)[C@@H](C)c1ccccc1 [(kss)3, reference compound] (H-[Nlys][Nspe][Nspe][Nlys][Nspe][Nspe][Nlys][Nspe][Nspe]-NH2)",,2 ± 0.2,4 ± 0.2,15 ± 1,
CCCCCCCCCCCCCCCC(=O)NCCOCCOCC(=O)N(CC(=O)N(CC(=O)N(CC(=O)N(CCCC)CC(=O)N(CCCCN)CC(=O)N(CCCCN)CC(=O)N(CCCCN)CC(=O)N(CCCCN)CC(N)=O)Cc1cccc2ccccc12)Cc1ccc(C)cc1)Cc1cccc2ccccc12 [C15-EG2-4k] ({Palmitoyl-AEEA}-[N(1-naphthylmethyl)Gly][N(4-MeBn)Gly][N(1-naphthylmethyl)Gly][NBuGly][Nlys][Nlys][Nlys][Nlys]-NH2),320 ± 24,,,,
